One experiment has as its system CD40. The experiment can be described thus: Flow cytometry of CD40 on D2SC/1 DC line after CD40L and inhibitors. Format: cell-based. How it is done: FIG. 8A-FIG. 8C show CD40L downregulates and reduces the signaling capacity of CD40. FIG. 8A provides two graphs showing endocytosis inhibition reduces CD40 downregulation. D2SC/1 cell lines were incubated with 250 μM cytochalasin B for 1 hour followed by a 30 min CD40L treatment. D2SC/1 cells were also treated with cytochalasin B, the DMSO solvent control, and CD40L alone. K^+-depletion of the D2SC/1 cell line was also carried out prior to CD40 surface staining and flow cytometry analysis. Only viable cells were gated for analysis. FIG. 8B provides flow cytometry analysis showing inhibition of lysosomal degradation enhances intracellular CD40 levels. D2SC/1 cell lines were incubated with 0.5 μM bafilomycin A inhibitor for 1 hour followed by intracellular staining for CD40 (Total CD40). Total CD40 is compared to surface CD40 fluorescence. FIG. 8C is a graph showing inhibition of endocytosis intensifies the CD40 activation signal in DC Lines. Staining and analysis of surface H-2K^d.
To initially investigate the potential downregulation of surface CD40 upon ligand engagement, flow cytometric analysis of DC surface expression of CD40 was monitored in the presence and absence of CD40L.
(In general: In flow cytometry, cells or beads pass a laser one at a time.)

The subject of the next experiment is RelB. The experiment can be described thus: Nuclear translocation of RelB by western blot of nuclear lysates of iCD40 D2SC/1 DCs, with pulse-chase. It is filed as cell-based. To be noted: pulse-chase experiments. The source says:
FIG. 2A-FIG. 2F show inducible CD40 initiates a potent NFkB signal in DCs. FIG. 2A is a photograph of an anti-HA Western Blot Analysis of iCD40 D2SC/1 DC Clones. FIG. 2B is a photograph of anti-HA Immunofluorescence of D2SC/1.Hi (lt) and D2SC/1 (rt) FIG. 2C is a graph of results of an NFκB-SEAP Reporter Assay. FIG. 2D is a graph of results and a photograph that show induction of RelB and Sp1 in D2SC/1.Hi by AP20187. FIG. 2E is a graph of results and a photograph of results of assays where maximum concentrations of each agent (based on titrations) were co-incubated with iCD40 D2SC/1 for 24 hrs and nuclear lysates were analyzed by western blot.
Reporter assays were carried out in these cell lines to determine whether iCD40 could also induce NFκB activation in DCs. […] Several studies have identified that the RelB subunit of NFκB plays a significant role in the DC maturation program (Pettit 1997; Martin 2003). […] Therefore, as a surrogate marker for DC activation, the nuclear translocation of RelB was analyzed by western blot in iCD40 DCs exposed to log dilutions of AP20187 (FIG. 2D).
DC activation potency of iCD40 was compared with other traditional DC maturation stimuli, such as LPS, TNFα, anti-CD40 mAb, and CD40L. […]

Experiment [1] concerns syngeneic lymph node (LN)-derived cells. The experiment can be described thus: Mixed lymphocyte reaction, 3H-thymidine T cell proliferation with mitomycin C-treated D2SC/1 DCs. Format: cell-based. To be noted: purified CD8+ T cells from LN tissue (>95%), no CD4+ help. How it is done: The initial approach to the determination of the T cell stimulation capacity of iCD40 DCs involved the co-incubation of mitomycin C-treated D2SC/1 DCs with syngeneic lymph node (LN)-derived cells in vitro. This mixed lymphocyte reaction (MLR) assay measured the ability of iCD40 DCs to induce a syngeneic T cell proliferative response to bovine serum-derived xenogeneic antigens (FIG. 3C). […] In order to investigate whether this T cell activation effect was dependent on CD4+ T cell help, CD8+ T cells from LN tissue (>95%) were purified and the ^3H-thymidine-based proliferation assay was repeated (FIG. 3C). […] Furthermore, the CD4+-depletion data inferred that the iCD40 receptor may be capable of substituting for CD4+ T cell help in DC-based vaccination strategies.

The test system of a further experiment is IL-12. Briefly: Intracellular cytokine staining of IL-12 in BMDCs. Format: cell-based, C57BL/6 mice. The conditions noted are these: decreased thereafter. The source says:
A viral region E1 and E3-deleted, replication-deficient type 5 adenoviral vector was engineered to express both iCD40 and EGFP under the control of the CMV early/immediate promoter/enhancer. Ad-iCD40-GFP successfully transduced and expressed the iCD40 transgene, as well as the EGFP marker, in purified BMDCs (FIG. 5A,B). […] The effects of Ad-iCD40-GFP on BMDCs were studied by using intracellular cytokine staining to evaluate DC expression of the TH1-polarizing cytokine, IL-12. The results confirmed numerous previous reports that an empty adenoviral vector can contribute to background fluorescence readings by stimulating the production of low levels of this cytokine (FIG. 5D) (Korst 2002).

The test system of another experiment is iCD40-IICD40 DC lines. The experiment can be described thus: iCD40-IICD40 double-stable D2SC/1 DC lines, western blot and H-2K^d surface expression. Format: cell-based. To be noted: IICD40-expressing lines vs empty vector control. The source says:
FIG. 9A-FIG. 9D show iCD40 circumvents negative feedback inhibition by the Type II CD40 (IICD40) isoform. FIG. 9A is a schematic of Type I, II, and iCD40. […] The type II CD40 isoform was rt-PCR amplified from purified BMDCs, subcloned into a pEF-1α-driven myc-tagged ZeoR vector, and transfected into iCD40-expressing D2SC/1 cells. Double clonal stable lines were generated by G418/zeocin selection and limiting dilution. Resulting lines were screened for IICD40 expression by anti-myc western blot and analyzed for iCD40 expression by anti-HA western blots. FIG. 9C is a graph showing that Type II CD40 down-regulates surface expression of Type I CD40 in DC Lines. Empty vector control and IICD40-expressing D2SC/1 lines were analyzed for their surface expression of CD40 by flow cytometry. Only viable cells were gated for analysis. FIG. 9D provides two graphs showing the Type II CD40 isoform downmodulates Type I CD40 signaling, but not iCD40 signaling. iCD40-IICD40-expressing D2SC/1 cell lines were cultured in the presence of increasing concentrations of CD40L and the AP20187 drug followed by surface staining and flow analysis of H-2K^d. […]
To expand upon these findings, the effects of CD40L and AP20187 titrations on each of the IICD40 lines were analyzed based on the hypothesis that IICD40-mediated type I CD40 downregulation should blunt the DC response to CD40L but not to AP20187 (FIG. 9D).
Background: Immunoblotting shows a protein as a band on a membrane.

Turning to `C=C1[C@@H](C)[C@H]2[C@H](Cc3ccccc3)NC(=O)[C@]23OC(=O)/C=C/[C@H](O)CCC[C@@H](C)C/C=C/[C@H]3[C@@H]1O` [cytocholasin B], in the experiment on CD40 (endocytosis inhibitor), the “sensitivity of CD40L-induced CD40 downregulation to inhibitor” value is given as “sensitive”. Consider TNFα, for which, in the experiment on RelB, the “duration of RelB induction” value worked out at 24 h. Take balifomycin A1: in the experiment on CD40 (endosomal H^+ATPase inhibitor), the “total CD40 levels (intracellular staining)” value is given as “enhanced total CD40 levels”. As for lipopolysaccharide [LPS], the “CD8+ T cell proliferation” value in experiment [1] is listed as “failed to circumvent the requirement for CD4+ T cell-derived helper signals”. Further, the “time of peak IL-12p70/p40 synthesis” value with IL-12 came out at 8 h.

B1: CD40L: CD40 ligand (protein)
chain: MIETYNQTSPRSAATGLPISMKIFMYLLTVFLITQMIGSALFAVYLHRRLDKIEDERNLHEDFVFMKTIQRCNTGERSLSLLNCEEIKSQFEGFVKDIMLNKEETKKENSFEMQKGDQNPQIAAHVISEASSKTTSVLQWAEKGYYTMSNNLVTLENGKQLTVKRQGLYYIYAQVTFCSNREASSQAPFIASLCLKSPGRFERILLRAANTHSSAKPCGQQSIHLGGVFELQPGASVFVNVTDPSQVSHGTGFTSFGLLKL
With B1, in the experiment with IL-12, the “time of peak IL-12p70/p40 synthesis” value turned out to be 8 h. Also, in the experiment with CD40 (D2SC/1 DC line, rapid kinetics), the “surface CD40 mean fluorescence intensity” value is “promptly reduced the mean fluorescence intensity of CD40”. Besides, the “MHC class I H-2K^d surface expression dose-response” value with iCD40-IICD40 DC lines is listed as “elevated amounts of CD40L were required to initiate signaling through the CD40 axis”.

(Values after US10420824B2, “Induced activation in dendritic cells” (BAYLOR COLLEGE OF MEDICINE, priority 2003, dated 2019).)
